The values that follow come from patent US8557823B2, “Family of PFKFB3 inhibitors with anti-neoplastic activities” (Advanced Cancer Therapeutics, LLC, priority 2007, dated 2013).

For one test, the system named is Jurkat leukemia cells. Put plainly: In vitro growth inhibition, Jurkat. The class given is cell-based. The note with it: Homo sapiens, 50% of vehicle control cell growth. Here is the method: (§1) The K562, HL-60, MDA-MB231, and melanoma (CRL-11174) human cancer cell lines were purchased from ATCC (American Tissue Type Culture Collection, Manassas, Va., United States of America). HeLa, A549, Lewis Lung Carcinoma, MDA-MB231, and melanoma cells were grown in Dulbecco's Modified Eagle Medium (DMEM) (Hyclone, Logan, Utah, United States of America) supplemented with 10% fetal bovine serum (Hyclone, Logan, Utah, United States of America) and 50 μg/mL gentamicin sulfate (Invitrogen, Carlsbad, Calif., United States of America). The HL-60, K562, and Jurkat cell lines were grown in RPMI-1640 medium (Hyclone, Logan, Utah, United States of America) supplemented with 10% fetal bovine serum and 50 μg/mL gentamicin sulfate. […]
(§2) Cells were collected 48 hours post-treatment, and cell number and viability were determined by trypan blue exclusion. […]

The test system of test [1] is melanoma (CRL-11174) cells. In words: In vitro growth inhibition, melanoma line. The class given is cell-based. The note with it: Homo sapiens. Here is the method:
as §1, §2

In test [2] the test system is PFKFB3 over-expressing Jurkat cells. Put plainly: Growth inhibition of Jurkat cells over-expressing PFKFB3 (Tet-ON, doxycycline). The test is classed as cell-based. The note with it: Homo sapiens, 48 hours. On the procedure:
(§3) FIG. 6D is a bar graph showing the anti-proliferative effects of 3PO in Jurkat cells engineered to over-express PFKFB3 through doxycylin treatment utilizing the Tet-on system (+PFKFB3, striped bars). Twenty-four hours prior to 3PO treatment, 1 μg/mL of doxycyclin is incubated with Jurkat cells containing a PFKFB3-expressing vector in order to induce PFKFB3 protein levels. Control cells (−PFKFB3, solid bars) containing an empty vector were similarly treated with doxycyclin and served as background PFKFB3 expression. Both cell types were subsequently incubated with increasing concentrations of 3PO (1, 3, 10, or 33 μM) or vehicle (V), and viable cells were analyzed after 48 hours. The bars represent the mean±STD of triplicate values from a representative experiment.
FLAG-PFKFB3 containing the complete PFKFB3 coding sequence and FLAG-epitope at its N-terminus was subcloned into the BamHI/HindIII restriction sites within the retroviral Tet response vector pRevTRE (Clontech, Mountain View, Calif., United States of America). Recombinant retrovirus was produced by Lipofectamine-mediated (Invitrogen, Carlsbad, Calif., United States of America) transfection of the pRevTRE-FLAG-PFKFB3 construct into PT67 packaging cell lines. […]
as §2

In test [3] the test system is Jurkat cells expressing unaltered PFKFB3 levels. In words: Growth inhibition of control Jurkat cells (empty vector, doxycycline). The test is classed as cell-based. The note with it: Homo sapiens, 48 hours. Here is the method:
as §3
All cell lines were plated at 1×10^5 cells/well in the appropriate medium. For suspension cells, increasing concentrations of 1 were added immediately to the medium, whereas, compound 1 treatment was initiated the following day for adherent cell lines. For dose-dependent studies, compound 1 was added in increasing concentrations for 36 hours. For time-dependent studies, 10 μM of compound 1 was added at time 0, 4, 8, 16, 24, or 36 hours. […]
as §2

The test system of test [4] is Lewis Lung Carcinoma xenografts. Put plainly: F2,6BP in Lewis lung carcinoma tumor xenografts. The test is classed as in vivo, mice. The note with it: 0.07 mg/g i.p., four hours post-injection. On the procedure:
C57Bl/6 female mice (20 g) were injected subcutaneously with 1×10^6 Lewis lung carcinoma cells. When the xenografts were measured to have a mass of between 150 and 180 mg, the mice were split into two groups. One group was injected i.p. with 0.07 mg/g of compound 1. The other group was used as a control and injected i.p. with 50 μL DMSO. Four hours post-injection, tumors were removed and homogenized in equal volumes of 0.1 M and 0.05 M NaOH. F2,6BP assays were performed as previously described. See Van Shaftingen et al., Eur. J. Biochem, 129, 191-195 (1982). […] F2,6BP concentration in the compound 1-treated mouse xenografts was 8.5±1.7 pmol/mg, while in the control mouse xenografts' F2,6BP concentration was 13.1±1.9 pmol/mg.

On to `O=C(/C=C/c1cccnc1)c1ccncc1` [Compound 1, 3-(3-pyridinyl)-1-(4-pyridinyl)-2-propen-1-one], for which the IC50 is 1.4 µM in the test on Jurkat leukemia cells, 15 µM in test [1], 19.3 µM in test [2] and 8.9 µM in test [3]. Moreover, in test [4], the “F2,6BP concentration in tumor xenografts” value stood at 8.5 ± 1.7 pmol/mg.

A word on the IC50: it is the concentration that inhibits the measured activity by half. Read a high IC50 as weaker potency in that assay.
